Tested on: skin
Assay: Affymetrix microarray of skin, DBP-4 hr and analogs vs. untreated; gene selection by log-2 fold change, Wilcoxon, Kendall tau (Tables 8, 9)
Assay type: in vivo, mouse

CCOC(=O)c1ccccc1C(=O)OCC [DEP, diethylphthalate]
Log2 Expression Level (gene #1 of Table 8): 5.52 | Log2 Expression Level (gene #2 of Table 8): 7.18 | Log2 Expression Level (gene #3 of Table 8): 8.98 | Log2 Expression Level (gene #4 of Table 8): 8.98 | Log2 Expression Level (gene #5 of Table 8): 6.10 | Log2 Expression Level (gene #6 of Table 8): 7.14 | Log2 Expression Level (gene #7 of Table 8): 6.55 | Log2 Expression Level (gene #8 of Table 8): 7.14 | Log2 Expression Level (gene #9 of Table 8): 7.14 | Log2 Expression Level (gene #10 of Table 8): 7.14 | Log2 Expression Level (gene #11 of Table 8): 6.55 | Log2 Expression Level (gene #12 of Table 8): 6.55 | Log2 Expression Level (gene #13 of Table 8): 6.55 | Log2 Expression Level (gene #14 of Table 8): 4.71 | Log2 Expression Level (gene #15 of Table 8): 4.71 | Log2 Expression Level (gene #16 of Table 8): 7.54 | Log2 Expression Level (gene #17 of Table 8): 9.32 | Log2 Expression Level (gene #18 of Table 8): 9.32 | Log2 Expression Level (gene #19 of Table 8): 8.41 | Log2 Expression Level (gene #20 of Table 8): 8.85 | Log2 Expression Level (gene #21 of Table 8): 8.77 | Log2 Expression Level (gene #22 of Table 8): 5.30 | Log2 Expression Level (gene #23 of Table 8): 6.03 | Log2 Expression Level (gene #24 of Table 8): 7.92 | Log2 Expression Level (gene #25 of Table 8): 7.92 | Log2 Expression Level (gene #26 of Table 8): 7.51 | Log2 Expression Level (gene #27 of Table 8): 7.51 | Log2 Expression Level (gene #28 of Table 8): 7.51 | Log2 Expression Level (gene #29 of Table 8): 5.79 | Log2 Expression Level (gene #30 of Table 8): 8.76 | Log2 Expression Level (gene #31 of Table 8): 8.76 | Log2 Expression Level (gene #32 of Table 8): 8.76 | Log2 Expression Level (gene #33 of Table 8): 5.34 | Log2 Expression Level (gene #34 of Table 8): 6.85 | Log2 Expression Level (gene #35 of Table 8): 6.85 | Log2 Expression Level (gene #36 of Table 8): 8.98 | Log2 Expression Level (gene #37 of Table 8): 8.98 | Log2 Expression Level (gene #38 of Table 8): 8.98 | Log2 Expression Level (gene #39 of Table 8): 7.28 | Log2 Expression Level (gene #40 of Table 8): 7.39 | Log2 Expression Level (gene #41 of Table 8): 7.54 | Log2 Expression Level (gene #42 of Table 8): 7.18 | Log2 Expression Level (gene #43 of Table 8): 7.18 | Log2 Expression Level (gene #44 of Table 8): 7.54 | Log2 Expression Level (gene #45 of Table 8): 7.18 | Log2 Expression Level (gene #46 of Table 8): 7.54 | Log2 Expression Level (gene #47 of Table 8): 8.45 | Log2 Expression Level (gene #48 of Table 8): 8.45 | Log2 Expression Level (gene #49 of Table 8): 8.45 | Log2 Expression Level (gene #50 of Table 8): 9.67 | Log2 Expression Level (gene #51 of Table 8): 7.95 | Log2 Expression Level (gene #52 of Table 8): 9.60 | Log2 Expression Level (gene #53 of Table 8): 8.70 | Log2 Expression Level (gene #54 of Table 8): 10.81 | Log2 Expression Level (gene #55 of Table 8): 6.30 | Log2 Expression Level (gene #56 of Table 8): 9.40 | Log2 Expression Level (gene #57 of Table 8): 8.76 | Log2 Expression Level (gene #58 of Table 8): 8.74 | Log2 Expression Level (gene #59 of Table 8): 7.93 | Log2 Expression Level (gene #60 of Table 8): 7.26 | Log2 Expression Level (gene #61 of Table 8): 12.58 | Log2 Expression Level (gene #62 of Table 8): 7.63 | Log2 Expression Level (gene #63 of Table 8): 10.52 | Log2 Expression Level (gene #64 of Table 8): 11.04 | Log2 Expression Level (gene #65 of Table 8): 6.97 | Log2 Expression Level (gene #66 of Table 8): 7.90 | Log2 Expression Level (gene #67 of Table 8): 4.52 | Log2 Expression Level (gene #68 of Table 8): 8.29 | Log2 Expression Level (gene #69 of Table 8): 5.13 | Log2 Expression Level (gene #70 of Table 8): 4.38 | Log2 Expression Level (gene #71 of Table 8): 7.95 | Log2 Expression Level (gene #72 of Table 8): 7.61 | Log2 Expression Level (gene #73 of Table 8): 6.09 | Log2 Expression Level (gene #74 of Table 8): 7.13 | Log2 Expression Level (gene #75 of Table 8): 8.41 | Log2 Expression Level (gene #76 of Table 8): 4.13 | Log2 Expression Level (gene #77 of Table 8): 9.75 | Log2 Expression Level (gene #78 of Table 8): 10.71 | Log2 Expression Level (gene #79 of Table 8): 6.51 | Log2 Expression Level (gene #80 of Table 8): 12.79 | Log2 Expression Level (gene #81 of Table 8): 5.69 | Log2 Expression Level (gene #82 of Table 8): 4.90 | Log2 Expression Level (gene #83 of Table 8): 7.87 | Log2 Expression Level (gene #84 of Table 8): 7.51 | Log2 Expression Level (gene #85 of Table 8): 4.61 | Log2 Expression Level (gene #86 of Table 8): 6.60 | Log2 Expression Level (gene #87 of Table 8): 7.01 | Log2 Expression Level (gene #88 of Table 8): 5.04 | Log2 Expression Level (gene #89 of Table 8): 5.15 | Log2 Expression Level (gene #90 of Table 8): 10.08 | Log2 Expression Level (gene #91 of Table 8): 6.27 | Log2 Expression Level (gene #92 of Table 8): 7.41 | Log2 Expression Level (gene #93 of Table 8): 8.87 | Log2 Expression Level (gene #94 of Table 8): 7.83 | Log2 Expression Level (gene #95 of Table 8): 5.79 | Log2 Expression Level (gene #96 of Table 8): 6.84 | Log2 Expression Level (gene #97 of Table 8): 5.27 | Log2 Expression Level (gene #98 of Table 8): 5.94 | Log2 Expression Level (gene #99 of Table 8): 9.42 | Log2 Expression Level (gene #100 of Table 8): 7.53

Reference: patent publication US20150307938A1, “METHOD TO IDENTIFY A NOVEL CLASS OF IMMUNOLOGIC ADJUVANTS” (Lancell, L.L.C., priority 2011, published 2015)
